Structures are written as SMILES. Like-named read-outs stand apart in the source and are kept apart here.

These results are taken from article PMC8414367, “(E)-7-Ethylidene-lithocholic Acid (7-ELCA) Is a Potent Dual Farnesoid X Receptor (FXR) Antagonist and GPBAR1 Agonist Inhibiting FXR-Induced Gene Expression in Hepatocytes and Stimulating Glucagon-like Peptide-1 Secretion From Enteroendocrine Cells” (Frontiers in Pharmacology, 2021).

The target of data set [1] is T1, human FXR (Homo sapiens, UniProt Q96RI1).
T1 sequence (Q96RI1 1-486): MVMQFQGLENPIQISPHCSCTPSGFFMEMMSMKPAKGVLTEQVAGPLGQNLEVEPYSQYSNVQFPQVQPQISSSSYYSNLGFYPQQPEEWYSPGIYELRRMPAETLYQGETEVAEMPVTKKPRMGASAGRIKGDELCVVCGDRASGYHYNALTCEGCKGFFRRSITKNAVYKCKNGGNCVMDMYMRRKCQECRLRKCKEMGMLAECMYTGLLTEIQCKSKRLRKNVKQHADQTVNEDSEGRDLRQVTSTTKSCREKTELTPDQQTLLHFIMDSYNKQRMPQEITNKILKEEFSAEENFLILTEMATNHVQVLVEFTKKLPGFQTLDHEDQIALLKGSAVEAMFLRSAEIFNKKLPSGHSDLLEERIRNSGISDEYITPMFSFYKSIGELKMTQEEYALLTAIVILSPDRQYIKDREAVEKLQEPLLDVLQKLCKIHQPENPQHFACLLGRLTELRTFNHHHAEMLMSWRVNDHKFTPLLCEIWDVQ
T1 sequence (P19793 1-462 partner): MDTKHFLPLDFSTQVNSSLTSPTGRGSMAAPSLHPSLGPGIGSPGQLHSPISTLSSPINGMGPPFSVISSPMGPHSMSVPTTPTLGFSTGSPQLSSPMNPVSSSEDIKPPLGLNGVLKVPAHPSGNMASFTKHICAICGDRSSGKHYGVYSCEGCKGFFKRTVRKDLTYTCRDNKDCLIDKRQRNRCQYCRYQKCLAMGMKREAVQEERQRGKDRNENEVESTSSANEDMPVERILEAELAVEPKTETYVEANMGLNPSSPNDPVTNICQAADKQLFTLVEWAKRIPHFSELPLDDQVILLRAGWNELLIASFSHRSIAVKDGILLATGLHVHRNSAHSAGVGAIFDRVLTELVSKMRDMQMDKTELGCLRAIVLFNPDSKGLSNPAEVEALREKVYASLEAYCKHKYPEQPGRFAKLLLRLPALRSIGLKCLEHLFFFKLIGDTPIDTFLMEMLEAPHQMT
Description: FXR luciferase reporter gene assay (FXRE-luc) in HepG2 cells, antagonistic mode. Type of data set: cell-based. The note with it: for remaining activity at 10 µM / remaining activity at 40 µM: HepG2; for remaining activity at 10 µM: tested compound 10 µM; for remaining activity at 40 µM: tested compound 40 µM, * = significant effect on cellular viability; for capacity to antagonize OCA-stimulated FXR activation (in words): with 1 µM OCA, Figure 3B.

Data set [2] can be described thus: MTS viability assay. Type of data set: cell-based, human. The note with it: human, vehicle = 100%. As to the method: (§1) The potential cytotoxicity of 7-alkylated chenodeoxycholic acid derivatives were assessed in different human (HepG2, HepaRG and Huh7) and murine (AML12) hepatocyte-derived cell lines. For this purpose, hepatic cells were treated at increasing concentration for 24h and analyzed by MTS viability assay.
(§2) Table S2. Cell viability was determined using the Cell Titer 96 Aqueous One Solution Cell Proliferation Assay (MTS assay) after treatment with test compounds for 24 h in four different hepatic cell lines. Vehicle (0.1% DMSO) and background (10% SDS; v/v, toxic control) controls of cell viability were set to be 100% and 0%, respectively.

The subject of data set [3] is HepG2. As to the kind of experiment: MTS viability assay. Type of data set: cell-based, human. The note with it: Homo sapiens; HepG2, 24 h, MTS; read-out: IC50 (µM), cell viability. As to the method: as §1, §2
(In general: Tetrazolium dyes change colour on reduction, which living cells bring about.)

Data set [4] concerns HepaRG. As to the kind of experiment: MTS viability assay. Type of data set: cell-based, human. The note with it: Homo sapiens, 24 h, MTS, read-out: IC50 (µM), cell viability. As to the method:
as §1, §2

Data set [5] concerns Huh7. Description: MTS viability assay. Type of data set: cell-based, human. Particulars: Homo sapiens, Huh-7; Huh7, 24 h, MTS; read-out: IC50 (µM), cell viability. As to the method:
as §1, §2

The nature of data set [6]: MTS viability assay. Type of data set: cell-based, murine. The note with it: mouse, AML12 cells; AML12, 24 h, vehicle = 100%. As to the method: as §1, §2
Data set [7] concerns AML12. Description: MTS viability assay. Type of data set: cell-based, murine. The note with it: Mus musculus; AML12, 24 h, MTS; read-out: IC50 (µM), cell viability. As to the method: as §1, §2
For data set [8], the target named is T2, GPBAR1 (Homo sapiens, UniProt Q8TDU6).
T2 construct: host or cells: HepG2
T2 sequence (Q8TDU6 1-330): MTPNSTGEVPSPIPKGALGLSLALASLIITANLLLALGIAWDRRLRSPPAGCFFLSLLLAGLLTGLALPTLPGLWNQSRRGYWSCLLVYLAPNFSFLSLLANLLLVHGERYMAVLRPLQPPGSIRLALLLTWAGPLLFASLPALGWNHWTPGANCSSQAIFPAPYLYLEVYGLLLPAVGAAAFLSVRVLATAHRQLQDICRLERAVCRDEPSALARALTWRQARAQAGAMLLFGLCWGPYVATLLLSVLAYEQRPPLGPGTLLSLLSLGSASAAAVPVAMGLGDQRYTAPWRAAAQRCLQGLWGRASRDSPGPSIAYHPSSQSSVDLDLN
Description: GPBAR1 CRE-luc luciferase reporter assay in HepG2 cells. Type of data set: cell-based. Particulars: 10 µM, 5 h, LCA 10 µM set as 100%. As to the method: (C) Effects of LCA and 7-ELCA (both at 10 µM) on intracellular generation of cAMP in differentiated NCI-H716 cells after 30 min treatment. The increase in cAMP level (ΔcAMP) is presented as the difference between cAMP concertation in the treated sample after subtraction of the cAMP in the nontreated control sample. (D) Concentration-response curves for activation of GPBAR1 by LCA and 7-ELCA. EC50 values were calculated using nonlinear fitting of concentration-response curves. […] GLP-1 was normalized to protein concentration and GPBAR1 mRNA expression to GAPDH mRNA. Data are presented as a fold to control nontreated (NT) samples. Forskolin (FSK, 10 µM) was used as a GPBAR1-independent activator of cAMP production.
(In general: A reporter such as luciferase makes a cellular process visible.)

Where [9] appears, read: GW4064 1 µM, read-out: relative response (%) to the model FXR ligand activation (set to be 100%), GW4064 1 µM.
[10] abbreviates: CDCA 20 µM, read-out: relative response (%) to the model FXR ligand activation (set to be 100%), CDCA 20 µM.

The viability is a read-out of living cells in per cent, often relative to untreated cells. Broadly, the IC50 is the point on the concentration scale where inhibition reaches its midpoint. In the case of `C[C@H](CCC(=O)O)[C@H]1CCC2C3C(CC[C@@]21C)[C@@]1(C)CC[C@@H](O)C[C@H]1C[C@@]3(C)O` (stereo partly drawn) [2b, 3α,7α-Dihydroxy-7β-methyl-5β-cholan-24-oic acid], in data set [1] (setting [9]), the remaining activity at 10 µM came to 85 ± 7.7%. Besides, the remaining activity at 40 µM in data set [1] (setting [10]) came to 112 ± 1.6%; in data set [1] (setting [9]), 64.9 ± 5%. The viability at 24 h, 10 µM in data set [2] (HepG2 cells, HepG2, 24 h) turned out to be 99.7 ± 1.2%; in data set [2] (HepaRG cells), 119.5 ± 1%; in data set [2] (Huh7 cells, Huh7, 24 h), 106 ± 5.8%; in data set [6], 108 ± 7.7%. Besides, the IC50 in data set [3], in data set [4], in data set [5] and in data set [7] was greater than 200 µM in each case.

`CC[C@@]1(O)C[C@@H]2C[C@H](O)CC[C@]2(C)C2CC[C@@]3(C)C(CC[C@@H]3[C@H](C)CCC(=O)O)C21` (stereo partly drawn) [2c, 3α,7α-Dihydroxy-7β-ethyl-5β-cholan-24-oic acid]: the remaining activity at 10 µM in data set [1] (setting [9]) worked out at 89 ± 6%. In addition, the figures for the remaining activity at 40 µM in data set [1] (setting [10]) and in data set [1] (setting [9]) were 67.1 ± 9.2% and 75.3 ± 2.5%, respectively. Moreover, the viability at 24 h, 10 µM in data set [2] (HepG2 cells, HepG2, 24 h) amounted to 100 ± 3.9%; in data set [2] (HepaRG cells) it was 117 ± 1.3%; in data set [2] (Huh7 cells, Huh7, 24 h), 113 ± 4.8%; in data set [6], 105 ± 2%. Further, the IC50 in data set [3], in data set [4], in data set [5] and in data set [7] was greater than 200 µM each time.

For `C=C[C@@]1(O)C[C@@H]2C[C@H](O)CC[C@]2(C)C2CC[C@@]3(C)C(CC[C@@H]3[C@H](C)CCC(=O)O)C21` (stereo partly drawn) [2d, 3α,7α-Dihydroxy-7β-vinyl-5β-cholan-24-oic acid], the remaining activity at 10 µM in data set [1] (setting [9]) came to 93.9 ± 6.6%. The figures for the remaining activity at 40 µM in data set [1] (setting [10]) and in data set [1] (setting [9]) were 80.2 ± 0.4% and 75.2 ± 4.6%, respectively. In addition, the “capacity to antagonize OCA-stimulated FXR activation (in words)” value (“capacity” for short) in data set [1] was “maintained”. Also, the viability at 24 h, 10 µM in data set [2] (HepG2 cells, HepG2, 24 h) is 95.9 ± 8.3%; in data set [2] (HepaRG cells), 104 ± 2.4%; in data set [2] (Huh7 cells, Huh7, 24 h) it was 117 ± 5.6%; in data set [6], 106 ± 3.9%. Moreover, the IC50 is 168.8 ± 1 µM in data set [3], greater than 200 µM in data set [4], greater than 100 µM in data set [5] and greater than 200 µM in data set [7].

For the compound `C#C[C@@]1(O)C[C@@H]2C[C@H](O)CC[C@]2(C)C2CC[C@@]3(C)C(CC[C@@H]3[C@H](C)CCC(=O)O)C21` (stereo partly drawn) [2e, 3α,7α-Dihydroxy-7β-ethynyl-5β-cholan-24-oic acid], the remaining activity at 10 µM in data set [1] (setting [9]) stood at 80.3 ± 3.9%. In addition, the values for the remaining activity at 40 µM in data set [1] (setting [10]) and in data set [1] (setting [9]) were 114.8 ± 0.7% and 64.8 ± 4.9%, respectively. The “capacity” value in data set [1] is recorded as “only minor antagonist activity”. The “CRE-luc activation compared to LCA (in words)” value in data set [8] is listed as “weak or no ability to act as agonists of GPBAR1”. Besides, the viability at 24 h, 10 µM came to 96.5 ± 4.1% in data set [2] (HepG2 cells, HepG2, 24 h); 92.9 ± 6.5% in data set [2] (HepaRG cells); 103 ± 4.4% in data set [2] (Huh7 cells, Huh7, 24 h); 97.5 ± 6.6% in data set [6]. Moreover, the IC50 in data set [3], in data set [4], in data set [5] and in data set [7] was greater than 200 µM each time.

In the case of `C=CC[C@@]1(O)C[C@@H]2C[C@H](O)CC[C@]2(C)C2CC[C@@]3(C)C(CC[C@@H]3[C@H](C)CCC(=O)O)C21` (stereo partly drawn) [2g, 3α,7α-Dihydroxy-7β-allyl-5β-cholan-24-oic acid], the remaining activity at 10 µM in data set [1] (setting [9]) was 93.2 ± 0.6%. The remaining activity at 40 µM in data set [1] (setting [10]) worked out at 107.2 ± 0.3%; in data set [1] (setting [9]) it was 74.4 ± 4.4%. Also, the “capacity” value in data set [1] is on record as “maintained”. Also, in data set [8], the “CRE-luc activation compared to LCA (in words)” value was “comparable activities to LCA”. The viability at 24 h, 10 µM in data set [2] (HepG2 cells, HepG2, 24 h) was 97.7 ± 9.1%; in data set [2] (HepaRG cells) it was 126 ± 4.5%; in data set [2] (Huh7 cells, Huh7, 24 h), 93.5 ± 10%; in data set [6], 109 ± 3.2%. Besides, the IC50 is 162 ± 2.1 µM in data set [3], greater than 200 µM in data set [4], greater than 100 µM in data set [5] and 161 µM in data set [7].

As for `C=CCCC[C@@]1(O)C[C@@H]2C[C@H](O)CC[C@]2(C)C2CC[C@@]3(C)C(CC[C@@H]3[C@H](C)CCC(=O)O)C21` (stereo partly drawn) [2j, 3α,7α-Dihydroxy-7β-(pent-4-en)-5β-cholan-24-oic acid], the remaining activity at 10 µM in data set [1] (setting [9]) turned out to be 93.6 ± 2.8%. The “capacity” value in data set [1] is on record as “maintained”. Further, the “CRE-luc activation compared to LCA (in words)” value in data set [8] is “weak or no ability to act as agonists of GPBAR1”. The viability at 24 h, 10 µM in data set [2] (HepG2 cells, HepG2, 24 h) came out at 87.8 ± 6.7%; in data set [2] (HepaRG cells) it was 93.1 ± 4.4%; in data set [2] (Huh7 cells, Huh7, 24 h), 114 ± 7%; in data set [6], 127 ± 7.1%. Moreover, the IC50 in data set [3] came to 77.3 ± 1.2 µM; in data set [4], 76.5 µM; in data set [5], 34 ± 1.5 µM; in data set [7] it was 75 µM.
